How the values were obtained:
[1] = system: human T-cells with allogenic immature dendritic cells; assay: Allogenic mixed lymphocyte reaction (MLR), T-cell proliferation; assay type: cell-based; conditions: 120 h, 5 days, baseline T-cells without Cbl-b inhibitor, read-out: Proliferation, fold change over baseline
Procedure: Cbl-b inhibitor effects on primary human T-cells were also evaluated in the context of an allogenic mixed lymphocyte reaction (MLR). Allogenic immature dendritic cells were generated under the following conditions. Peripheral blood mononuclear cells (PBMC) were obtained either: 1) by using Ficoll-Paque™ (GE Healthcare) for separation of peripheral blood hematopoietic cells from huffy coats of healthy human donors; or 2) directly from LeukoPak donations. […] Monocytes were cultured with 30 ng/mL of recombinant human GM-CSF and 20 ng/mL of recombinant human IL-4 for seven days to generate immature dendritic cells. Monocytes and T-cells were either isolated fresh from peripheral blood or thawed from frozen stocks. Human T-cells were isolated, labeled with CFSE and incubated with inhibitors as described above. […] Proliferation of the T-cells was evaluated by flow cytometry.
Readouts for the allogenic mixed lymphocyte reaction were reported as fold change over baseline. Baseline for this study was the measurement obtained from total human T-cells stimulated with allogenic immature dendritic cells, wherein the T-cells were not incubated with a Cbl-b inhibitor (Table 5). Increases in proliferation greater than 2-fold over baseline were considered a positive response (Table 5).

T-cell [2] = assay: CD25 cell surface staining on T-cells stimulated with anti-CD3 antibody alone (Biological Example 2); assay type: cell-based; conditions: 1 μM compound, primary human total T-cells, baseline = anti-CD3/anti-CD28 stimulated cells without inhibitor, read-out: CD25 staining, Anti-CD3 stimulation, fold change over baseline
T-cell [3] = assay: IL-2 secretion from T-cells stimulated with anti-CD3 antibody alone (Biological Example 2); assay type: cell-based; conditions: 1 μM compound, primary human total T-cells, read-out: IL-2 secretion, Anti-CD3 stimulation, fold change over baseline
T-cells = assay: In vivo activity: CD25 expression on CD4+ or CD8+ T-cells of mice stimulated with anti-CD3 antibody; conditions: 2 μg anti-CD3 antibody, 24 hours
Method in brief: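 C57BL/6 or BALB/c mice dosed with inhibitor (IV, IP, SC or PO, e.g. BID or TID), then stimulated with 2 μg anti-CD3 antibody. Plasma IL-2, IFNγ, TNFα at 8 h and CD25 on CD4+/CD8+ T-cells by flow cytometry at 24 h; fold change over vehicle plus anti-CD3, binned A–E.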

SMILES	fold induction at 3 µM [1]	fold induction at 10 µM [1]	fold induction at 1 µM (T-cell [2])	fold induction at 1 µM (T-cell [3])	CD4+ T-cell % CD25+ (T-cells; 45 mpk PO BID)	CD8+ T-cell % CD25+ (T-cells; 45 mpk PO BID)	CD4+ T-cell % CD25+ (T-cells; 90 mpk PO BID)	CD8+ T-cell % CD25+ (T-cells; 90 mpk PO BID)	CD4+ T-cell % CD25+ (T-cells; 180 mpk PO BID)	CD8+ T-cell % CD25+ (T-cells; 180 mpk PO BID)	CD4+ T-cell % CD25+ (T-cells; 135 mpk PO BID)	CD8+ T-cell % CD25+ (T-cells; 135 mpk PO BID)
Cn1cnnc1CC1(c2cccc(NC(=O)c3cc(CN4CCC5(CC5)C4)cc(C4CC4)n3)c2)COC1 [Compound 519, 4-((5-azaspiro[2.4]heptan-5-yl)methyl)-6-cyclopropyl-N-(3-(3-((4-methyl-4H-1,2,4-triazol-3-yl)methyl)oxetan-3-yl)phenyl)picolinamide]	> 3.01	> 3.01	> 1	> 0.201	C (C indicates 1.51-2.00)	D (D indicates 1.00-1.50)	A (A indicates >2.50)	D (D indicates 1.00-1.50)	A (A indicates >2.50)	C (C indicates 1.51-2.00)	–	–
Cn1cnnc1CC1(c2cccc(N3Cc4c(cc(CN5CCC6(CC6)C5)cc4C(F)(F)F)C3=O)c2)COC1 [Compound 520, 6-((5-azaspiro[2.4]heptan-5-yl)methyl)-2-(3-(3-((4-methyl-4H-1,2,4-triazol-3-yl)methyl)oxetan-3-yl)phenyl)-4-(trifluoromethyl)isoindolin-1-one]	> 3.01	> 3.01	> 1	> 0.201	D (D indicates 1.00-1.50)	D (D indicates 1.00-1.50)	D (D indicates 1.00-1.50)	D (D indicates 1.00-1.50)	B (B indicates 2.01-2.50)	D (D indicates 1.00-1.50)	C (C indicates 1.51-2.00)	D (D indicates 1.00-1.50)

— US20220324835A1 (Nurix Therapeutics, Inc., priority 2018, published 2022)
